Like-named read-outs stand apart in the source and are kept apart here. Bounds are passed on as bounds.

Results on 17 molecules are retold here after US10590140B2, “Tetrahydropyrimidodiazepine and dihydropyridodiazepine compounds for treating pain and pain related conditions” (ESTEVE PHARMACEUTICALS, S.A., priority 2016, dated 2020).

Experiment [1] concerns the target human norepinephrine transporter (NET) (Homo sapiens (Human), UniProt P23975). As to the kind of experiment: Binding assay to human norepinephrine transporter (NET) ([3H]-Nisoxetin). The conditions noted are these: Table 2, dual compounds; [3H]-Nisoxetin binding. The essentials: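 NET-enriched membranes (5 μg) incubated with 5 nM [3H]-nisoxetin in 50 mM Tris-HCl, 120 mM NaCl, 5 mM KCl, pH 7.4, 60 min at 4 °C. Bound ligand separated by filtration on PEI-soaked GF/C and counted by scintillation; nonspecific binding defined with 1 μM competitor.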

The target of experiment [2] is human α2δ-1 subunit of Cav2.2 calcium channel (Homo sapiens (Human), UniProt P54289). As to the kind of experiment: Binding assay to human α2δ-1 subunit of Cav2.2 calcium channel ([3H]-Gabapentin). The conditions noted are these: read-out: Ki (nM) α2δ-1. The essentials:
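[3H]-gabapentin binding, 60 min at 27° C; nonspecific binding defined with 10 μM pregabalin. Terminated by filtration on PEI-presoaked GF/C filters, ice-cold 50 mM Tris-HCl pH 7.4 washes, then scintillation counting.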

Where [3] appears, read: Table 2, dual compounds, [3H]-Gabapentin binding.
The mark [4] stands for this setting: binding to α2δ-1, [3H]-Gabapentin.

human α2δ-1 subunit of Cav2.2 calcium channel, sequence (P54289 25-1103): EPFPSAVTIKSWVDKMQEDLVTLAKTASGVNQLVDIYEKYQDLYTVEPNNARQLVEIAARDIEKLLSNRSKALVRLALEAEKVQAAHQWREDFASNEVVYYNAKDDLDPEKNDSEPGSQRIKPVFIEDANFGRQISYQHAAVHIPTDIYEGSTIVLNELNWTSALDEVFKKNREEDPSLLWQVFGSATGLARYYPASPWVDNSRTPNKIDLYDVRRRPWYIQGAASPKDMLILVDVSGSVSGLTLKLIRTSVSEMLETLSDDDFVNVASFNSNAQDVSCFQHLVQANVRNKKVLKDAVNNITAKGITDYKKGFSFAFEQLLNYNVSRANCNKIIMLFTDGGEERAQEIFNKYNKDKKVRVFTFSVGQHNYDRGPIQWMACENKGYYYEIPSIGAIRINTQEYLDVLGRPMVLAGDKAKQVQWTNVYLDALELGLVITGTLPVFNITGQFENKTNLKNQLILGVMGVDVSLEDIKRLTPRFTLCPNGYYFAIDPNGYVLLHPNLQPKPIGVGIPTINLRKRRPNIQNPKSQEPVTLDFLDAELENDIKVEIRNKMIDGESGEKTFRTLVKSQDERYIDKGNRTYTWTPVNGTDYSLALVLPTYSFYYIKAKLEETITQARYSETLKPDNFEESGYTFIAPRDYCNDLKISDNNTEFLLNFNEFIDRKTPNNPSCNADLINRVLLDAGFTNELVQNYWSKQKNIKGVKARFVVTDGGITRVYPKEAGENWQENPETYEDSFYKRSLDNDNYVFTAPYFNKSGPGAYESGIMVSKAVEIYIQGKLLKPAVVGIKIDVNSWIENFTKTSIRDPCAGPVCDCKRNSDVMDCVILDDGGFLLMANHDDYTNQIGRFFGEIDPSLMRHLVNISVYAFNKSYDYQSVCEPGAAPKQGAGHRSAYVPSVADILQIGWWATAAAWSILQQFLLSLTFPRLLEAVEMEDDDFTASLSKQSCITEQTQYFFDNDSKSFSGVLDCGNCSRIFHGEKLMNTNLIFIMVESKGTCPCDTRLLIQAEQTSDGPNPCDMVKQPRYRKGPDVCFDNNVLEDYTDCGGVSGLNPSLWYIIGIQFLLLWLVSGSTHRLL
human norepinephrine transporter (NET), sequence (P23975 whole entry): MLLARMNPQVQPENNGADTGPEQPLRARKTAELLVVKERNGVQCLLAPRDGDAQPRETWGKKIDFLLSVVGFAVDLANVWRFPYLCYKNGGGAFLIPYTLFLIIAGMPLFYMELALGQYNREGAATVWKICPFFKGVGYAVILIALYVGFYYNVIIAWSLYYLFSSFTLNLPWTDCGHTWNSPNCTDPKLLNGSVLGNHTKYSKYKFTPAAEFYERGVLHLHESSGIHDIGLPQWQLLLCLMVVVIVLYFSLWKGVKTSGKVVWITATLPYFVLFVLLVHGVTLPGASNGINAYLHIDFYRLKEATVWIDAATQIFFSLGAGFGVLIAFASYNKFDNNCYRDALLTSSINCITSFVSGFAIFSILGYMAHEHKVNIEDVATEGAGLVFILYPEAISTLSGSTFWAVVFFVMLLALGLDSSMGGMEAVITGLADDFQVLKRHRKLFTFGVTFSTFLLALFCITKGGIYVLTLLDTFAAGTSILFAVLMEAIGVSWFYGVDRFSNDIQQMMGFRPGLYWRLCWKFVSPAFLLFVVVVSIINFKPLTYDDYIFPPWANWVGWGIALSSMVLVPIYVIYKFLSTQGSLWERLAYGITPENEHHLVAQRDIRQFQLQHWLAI

As for `CNCCC(OCc1ccc(N2CCN(C)c3nc(SC)ncc3C2=O)cc1)c1ccccc1` (stereo not drawn) [Example 315, 9-methyl-6-(4-((3-(methylamino)-1-phenylpropoxy)methyl)phenyl)-2-(methylthio)-6,7,8,9-tetrahydro-5H-pyrimido[4,5-e][1,4]diazepin-5-one], the values for the Ki in experiment [1], in experiment [2] (setting [3]) and in experiment [2] (setting [4]) were less than 100 nM, more than 3000 nM and more than 3000 nM, respectively.
Consider `CNCCC(Oc1ccc(N2CCN(C)c3nc(SC)ncc3C2=O)cc1)c1ccccc1` (stereo not drawn) [Example 316, 9-methyl-6-(4-(3-(methylamino)-1-phenylpropoxy)phenyl)-2-(methylthio)-6,7,8,9-tetrahydro-5H-pyrimido[4,5-e][1,4]diazepin-5-one], for which the Ki in experiment [1] was 500 to 1000 nM; in experiment [2] (setting [3]), more than 3000 nM; in experiment [2] (setting [4]), more than 3000 nM.
Consider `CNCC(OCc1ccc(N2CCN(C)c3nc(SC)ncc3C2=O)cc1)c1ccccc1` (stereo not drawn) [Example 321, 9-methyl-6-(4-((2-(methylamino)-1-phenylethoxy)methyl)phenyl)-2-(methylthio)-6,7,8,9-tetrahydro-5H-pyrimido[4,5-e][1,4]diazepin-5-one], for which the Ki is less than 100 nM in experiment [1], more than 3000 nM in experiment [2] (setting [3]) and more than 3000 nM in experiment [2] (setting [4]).
Consider `CNCCC(OCc1cccc(N2CCN(C)c3nc(C(F)(F)F)ncc3C2=O)c1)c1ccccc1` (stereo not drawn) [Example 322, 9-methyl-6-(3-((3-(methylamino)-1-phenylpropoxy)methyl)phenyl)-2-(trifluoromethyl)-6,7,8,9-tetrahydro-5H-pyrimido[4,5-e][1,4]diazepin-5-one], for which the values for the Ki in experiment [1], in experiment [2] (setting [3]) and in experiment [2] (setting [4]) were 100 to 500 nM, more than 3000 nM and more than 3000 nM, respectively.
For the molecule `CNCCC(OCc1ccc(N2CCN(C)c3nc(SC)ncc3C2=O)cc1)c1cccs1` (stereo not drawn) [Example 328, 9-methyl-6-(4-((3-(methylamino)-1-(thiophen-2-yl)propoxy)methyl)phenyl)-2-(methylthio)-6,7,8,9-tetrahydro-5H-pyrimido[4,5-e][1,4]diazepin-5-one], the Ki in experiment [1] was less than 100 nM; in experiment [2] (setting [3]), more than 3000 nM; in experiment [2] (setting [4]), more than 3000 nM.
`CNCCC(OCc1cccc(N2CCN(C)c3nc(C(F)(F)F)ncc3C2=O)c1)c1cccs1` (stereo not drawn) [Example 330, 9-methyl-6-(3-((3-(methylamino)-1-(thiophen-2-yl)propoxy)methyl)phenyl)-2-(trifluoromethyl)-6,7,8,9-tetrahydro-5H-pyrimido[4,5-e][1,4]diazepin-5-one]: the Ki in experiment [1] is 100 to 500 nM; in experiment [2] (setting [3]) it was 500 to 3000 nM; in experiment [2] (setting [4]) it was 500 to 3000 nM.
Take `CNCCC(OCc1cccc(N2CCN(C)c3nc(NCc4ccccc4)ncc3C2=O)c1)c1ccccc1` (stereo not drawn) [Example 335, 2-(benzylamino)-9-methyl-6-(3-((3-(methylamino)-1-phenylpropoxy)methyl)phenyl)-6,7,8,9-tetrahydro-5H-pyrimido[4,5-e][1,4]diazepin-5-one]: the Ki in experiment [1] is less than 100 nM; in experiment [2] (setting [3]), 500 to 3000 nM; in experiment [2] (setting [4]), 500 to 3000 nM.
Turning to `CNCCC(OCc1cccc(N2CCN(C)c3nc(N(C)Cc4ccccn4)ncc3C2=O)c1)c1ccccc1` (stereo not drawn) [Example 336, 9-methyl-2-(methyl(pyridin-2-ylmethyl)amino)-6-(3-((3-(methylamino)-1-phenylpropoxy)methyl)phenyl)-6,7,8,9-tetrahydro-5H-pyrimido[4,5-e][1,4]diazepin-5-one], the Ki was in the range of 100 to 500 nM in experiment [1], 500 to 3000 nM in experiment [2] (setting [3]) and 500 to 3000 nM in experiment [2] (setting [4]).
On to `CCNc1ncc2c(n1)N(C)CCN(c1ccc(COC(CNC)c3ccccc3)cc1)C2=O` (stereo not drawn) [Example 340, 2-(ethylamino)-9-methyl-6-(4-((2-(methylamino)-1-phenylethoxy)methyl)phenyl)-6,7,8,9-tetrahydro-5H-pyrimido[4,5-e][1,4]diazepin-5-one], for which the Ki in experiment [1] is less than 100 nM; in experiment [2] (setting [3]), more than 3000 nM; in experiment [2] (setting [4]), more than 3000 nM.
Regarding `CNCC[C@@H](OCc1cccc(N2CCN(C)c3nc(N(C)Cc4ccccn4)ncc3C2=O)c1)c1ccccc1` [Example 341, (R)-9-methyl-2-(methyl(pyridin-2-ylmethyl)amino)-6-(3-((3-(methylamino)-1-phenylpropoxy)methyl)phenyl)-6,7,8,9-tetrahydro-5H-pyrimido[4,5-e][1,4]diazepin-5-one], the inhibition constant Ki in experiment [1], in experiment [2] (setting [3]) and in experiment [2] (setting [4]) was 100 to 500 nM each time.
For the molecule `CNCC[C@@H](OCc1cccc(N2CCN(C)c3nc(N(C)Cc4cccnc4)ncc3C2=O)c1)c1ccccc1` [Example 342, (R)-9-methyl-2-(methyl(pyridin-3-ylmethyl)amino)-6-(3-((3-(methylamino)-1-phenylpropoxy)methyl)phenyl)-6,7,8,9-tetrahydro-5H-pyrimido[4,5-e][1,4]diazepin-5-one], the Ki in experiment [1], in experiment [2] (setting [3]) and in experiment [2] (setting [4]) was 100 to 500 nM each time.
For `CNCC[C@@H](OCc1cccc(N2CCN(C)c3nc(NCc4ccccn4)ncc3C2=O)c1)c1ccccc1` [Example 343, (R)-9-methyl-6-(3-((3-(methylamino)-1-phenylpropoxy)methyl)phenyl)-2-((pyridin-2-ylmethyl)amino)-6,7,8,9-tetrahydro-5H-pyrimido[4,5-e][1,4]diazepin-5-one], the Ki in experiment [1], in experiment [2] (setting [3]) and in experiment [2] (setting [4]) was 100 to 500 nM in each case.
As for `CCNc1ncc2c(n1)N(C)CCN(c1ccc(COC(CCNC)c3cccs3)cc1)C2=O` (stereo not drawn) [Example 348, 2-(ethylamino)-9-methyl-6-(4-((3-(methylamino)-1-(thiophen-2-yl)propoxy)methyl)phenyl)-6,7,8,9-tetrahydro-5H-pyrimido[4,5-e][1,4]diazepin-5-one], the inhibitory constant (Ki) is 100 to 500 nM in experiment [1], more than 3000 nM in experiment [2] (setting [3]) and more than 3000 nM in experiment [2] (setting [4]).
For the molecule `CNCCC(OCc1ccc(N2CCN(C)c3nc(C)ncc3C2=O)cc1)c1ccccc1` (stereo not drawn) [Example 353, 2,9-dimethyl-6-(4-((3-(methylamino)-1-phenylpropoxy)methyl)phenyl)-6,7,8,9-tetrahydro-5H-pyrimido[4,5-e][1,4]diazepin-5-one], the figures for the Ki in experiment [1], in experiment [2] (setting [3]) and in experiment [2] (setting [4]) were less than 100 nM, more than 3000 nM and more than 3000 nM, respectively.
With `CCc1ncc2c(n1)N(C)CCN(c1cccc(COC(CCNC)c3ccccc3)c1)C2=O` (stereo not drawn) [Example 354, 2-ethyl-9-methyl-6-(3-((3-(methylamino)-1-phenylpropoxy)methyl)phenyl)-6,7,8,9-tetrahydro-5H-pyrimido[4,5-e][1,4]diazepin-5-one], the Ki in experiment [1] was 100 to 500 nM; in experiment [2] (setting [3]) it was 500 to 3000 nM; in experiment [2] (setting [4]) it was 500 to 3000 nM.
`CNCC(OCc1ccc(N2CCN(C)c3nc(C)ncc3C2=O)cc1)c1ccccc1` (stereo not drawn) [Example 355, 2,9-dimethyl-6-(4-((2-(methylamino)-1-phenylethoxy)methyl)phenyl)-6,7,8,9-tetrahydro-5H-pyrimido[4,5-e][1,4]diazepin-5-one]: the Ki in experiment [1] was less than 100 nM; in experiment [2] (setting [3]) it was more than 3000 nM; in experiment [2] (setting [4]), more than 3000 nM.
As for `CCc1ncc2c(n1)N(C)CCN(c1cccc(CO[C@H](CCNC)c3ccccc3)c1)C2=O` [Example 356, (R)-2-ethyl-9-methyl-6-(3-((3-(methylamino)-1-phenylpropoxy)methyl)phenyl)-6,7,8,9-tetrahydro-5H-pyrimido[4,5-e][1,4]diazepin-5-one], the Ki lay within 100 to 500 nM in experiment [1], 500 to 3000 nM in experiment [2] (setting [3]) and 500 to 3000 nM in experiment [2] (setting [4]).
